Reference: US4618602A, “Amine containing pseudooligosaccharide, pharmaceutical composition and method of use” (Hoechst Aktiengesellschaft, priority 1984, dated 1986)

Columns and labels:
[1] = tested on: α-Amylase from the pancreas of pigs; experiment: Amylase test (inhibition of α-amylase, amylase inhibitor units); format: biochemical; settings: 1 AIU inhibits two amylase units by 50%, pH 6.9, 37° C.
Procedure: One amylase inhibitor unit (AIU) is defined as the amount of inhibitor which is capable of inhibiting two amylase units (AU) to the extent of 50% under the test conditions. By international agreement, one amylase unit is the amount of enzyme which cleaves 1 μEq of glucosidic bonds in starch in one minute. The μ equivalents of glucosidic bonds cleaved are determined photometrically, with dinitrosalicylic acid, as μEq of reducing sugars. The data are calculated as μmol of maltose, determined with the aid of a maltose calibration line.
α-Amylase from the pancreas of pigs and the solutions to be tested are preincubated together in 1.0 ml of 20 mM phosphate buffer, pH 6.9, +10 mM NaCl at 37° C. for 10-20 minutes. The enzymatic reaction is started by addition of 1.0 ml of soluble starch (0.25% strength in the buffer described) according to Zulkowski. After exactly 10 minutes, the reaction istopped with 2.0 ml of dinitrosalicylic acid color reagent (from Boehringer Mannheim: Biochemica-Information II), and the mixture is heated in a boiling waterbath for 5 minutes for color development. After cooling, the extinction is measured against the reagent blank at 546 nm. The 50% inhibition is determined graphically by means of a probability plot in comparison with the non-inhibited enzyme reaction using various amounts of inhibitor.

Solubility in water = format: physicochemical
experimental animals = experiment: Oral administration of high doses to experimental animals (tolerability); format: in vivo
blood sugar = experiment: Blood sugar after oral starch load in fasting male Wistar rats; format: in vivo; settings: simultaneously with 2 g of starch per kg, fasting male Wistar rats 200-250 g
Excerpt: The α-glucosidase inhibitor according to the invention is particularly suitable for ora administration. It can be administered as the pure substance, as a physiologically acceptable salt with acids or in the form of a pharmaceutical formulation, using the customary auxiliaries and excipients. Combined use with other medicaments, such as hypoglycemic or lipid-lowering substances, may also be advantageous. Since high molecular weight saccharides are not, or not noticeably, absorbed as such from the digestive tract, no toxicologically unacceptable side effects are to be expected of the substance according to the invention. […] To test the pharmacological action of the AI-5662, fasting male Wistar rats weighing between 200 and 250 g were given an oral administration of the inhbitor AI-5662 according to the invention simultaneously with 2 g of starch per kg of body weight. […] Besides blood glucose regulation, the […] according to the invention can also be used for inhibiting salivary α-amylase. This enzyme effects digestion of starch in the mouth, and the sugar thus formed promotes caries of the teeth. The compound according to the invention can therefore be used to prevent or reduce the development of caries.

α-amylase-inhibiting action ([1]; freeze-dried white amorphous powder of Example 2): 4×10^4 AIU per mg | specific activity ([1]; purified product after silica gel chromatography): 4×10^4 α-amylase inhibitor units per mg | solubility in water (Solubility in water): readily soluble in water
Compound: C[C@H]1O[C@H](O[C@H]2[C@H](O)[C@@H](O)[C@@H](O[C@H]3[C@H](O)[C@@H](O)C(O)O[C@@H]3CO)O[C@@H]2CO)[C@H](O)[C@@H](O)[C@@H]1N[C@H]1C=C(CO)[C@@H](O[C@H]2O[C@H](CO)[C@@H](O[C@H]3O[C@H](C)[C@@H](N[C@H]4C=C(CO)[C@@H](O)[C@H](O)[C@H]4O)[C@H](O)[C@H]3O)[C@H](O)[C@H]2O)[C@H](O)[C@H]1O (some centres unmarked) [AI-5662]
signs following oral administration even of high doses (experimental animals): no notworthy signs were detected | efficacy on blood sugar concentrations (blood sugar): The efficacy of the product was demonstrated
